According to patent publication US20250230193A1, “CYCLIC COMPOUND HAVING SELECTIVE KRAS INHIBITORY EFFECT ON HRAS AND NRAS” (CHUGAI SEIYAKU KABUSHIKI KAISHA, priority 2022, published 2025):
Where a SMILES comes first, the peptide text is derived from it. Bridges are numbered along the chain shown (N, C = ends). [ ]: non-standard residue; d: D form. The star is where a group is joined. hPhe(3-Cl-4-CF3) = N[C@@H](CCc1ccc(C(F)(F)F)c(Cl)c1)C(=O)O; NPrPhe(4-CF3) = CCCN[C@@H](Cc1ccc(C(F)(F)F)cc1)C(=O)O; NMeGly(cPent) = CN[C@H](C(=O)O)C1CCCC1; NMeD = CN[C@@H](CC(=O)O)C(=O)O; NMeL = CN[C@@H](CC(C)C)C(=O)O; Morpholide = C1CN(*)CCO1; Ac4c = NC1(C(=O)O)CCC1; Sar = CNCC(=O)O

Tests used:
[1] = biological target: GDP-bound NRAS wild-type protein (Homo sapiens, UniProt P01111); assay: Binding to NRAS by surface plasmon resonance (SPR), Single Cycle Kinetics; details: for NRAS/KRAS (ratio of KD value with respect to GDP-bound NRAS wild-type protein to KD value with respect to KRAS): class symbols; for NRAS/KRAS (ratio of KD value with respect to NRAS to KD value with respect to KRAS): GDP-bound NRAS wild-type vs GDP-bound KRAS wild-type
[2] = biological target: GDP-bound HRAS wild-type protein (Homo sapiens, UniProt P01112); assay: Binding to HRAS by surface plasmon resonance (SPR), Single Cycle Kinetics; details: for HRAS/KRAS (ratio of KD value with respect to GDP-bound HRAS wild-type protein to KD value with respect to KRAS): class symbols; for HRAS/KRAS (ratio of KD value with respect to HRAS to KD value with respect to KRAS): GDP-bound HRAS wild-type vs GDP-bound KRAS wild-type
Sequence of GDP-bound HRAS wild-type protein (P01112 whole entry): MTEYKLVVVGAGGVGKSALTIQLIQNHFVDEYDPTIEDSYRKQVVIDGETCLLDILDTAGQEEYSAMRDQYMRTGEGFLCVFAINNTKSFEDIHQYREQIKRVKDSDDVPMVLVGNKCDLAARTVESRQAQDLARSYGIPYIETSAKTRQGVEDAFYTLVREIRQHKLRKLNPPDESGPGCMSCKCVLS

Sequence of GDP-bound NRAS wild-type protein (P01111 whole entry): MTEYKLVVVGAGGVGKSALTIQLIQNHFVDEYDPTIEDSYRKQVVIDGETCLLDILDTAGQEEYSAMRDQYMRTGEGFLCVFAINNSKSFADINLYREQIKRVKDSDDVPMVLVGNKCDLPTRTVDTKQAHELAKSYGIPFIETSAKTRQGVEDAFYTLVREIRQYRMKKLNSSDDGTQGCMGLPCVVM

`CCO[C@@H]1C[C@H]2C(=O)NC3(CC(C)(C)C3)C(=O)N(C)[C@@H](CC(C)(C)C)C(=O)N(C)[C@H](C(=O)N(C)C)CC(=O)N(C)[C@@H](COC)C(=O)N[C@@H]([C@@H](C)CC)C(=O)N(C3CC3)CC(=O)N(C)[C@H]3C/C=C\CCN(C3=O)[C@@H](Cc3ccc(C(F)(F)F)cc3)C(=O)N(C)CC(=O)N[C@@H](CCc3cc(F)c(C(F)(F)F)c(F)c3)C(=O)N2C1` [PP2744] was tested, and the “NRAS/KRAS (ratio of KD value with respect to GDP-bound NRAS wild-type protein to KD value with respect to KRAS)” value ([1]; KD ratio NRAS/KRAS) was “A (a compound having 10 or more and less than 20 is denoted as A)” and the “HRAS/KRAS (ratio of KD value with respect to GDP-bound HRAS wild-type protein to KD value with respect to KRAS)” value ([2]; KD ratio HRAS/KRAS) was “A (a compound having 10 or more and less than 20 is denoted as A)”.
With `CCO[C@@H]1C[C@H]2C(=O)NC3(CC(C)(C)C3)C(=O)N(C)[C@@H](C3CCCC3)C(=O)N(C)[C@H](C(=O)N3CCCCC3)CC(=O)N(C)[C@@H](COC)C(=O)N[C@@H]([C@@H](C)CC)C(=O)N(C3CC3)CC(=O)N(C)[C@H]3C/C=C\CCN(C3=O)[C@@H](Cc3ccc(C(F)(F)F)cc3)C(=O)N(C)CC(=O)N[C@@H](CCc3cc(F)c(C(F)(F)F)c(F)c3)C(=O)N2C1` [PP2666] the “NRAS/KRAS (ratio of KD value with respect to GDP-bound NRAS wild-type protein to KD value with respect to KRAS)” value ([1]; KD ratio NRAS/KRAS) was “AA (a compound having 20 or more is denoted as AA)” and the “HRAS/KRAS (ratio of KD value with respect to GDP-bound HRAS wild-type protein to KD value with respect to KRAS)” value ([2]; KD ratio HRAS/KRAS) was “AA (a compound having 20 or more is denoted as AA)”.
With `CC[C@H](C)[C@@H]1NC(=O)[C@H](COC)N(C)C(=O)C[C@@H](C(=O)N(C)C)N(C)C(=O)[C@H](C2CCCC2)N(C)C(=O)C2(CC(C)(C)C2)NC(=O)[C@@H]2C[C@H](C)CN2C(=O)[C@H](CCc2ccc(C(F)(F)F)c(OC)c2)NC(=O)CN(C)C(=O)[C@H](Cc2ccc(C)cc2)N2CC/C=C\C[C@@H](C2=O)N(C)C(=O)[C@@H]2C[C@H](C)CN2C1=O` [PP2386] the “NRAS/KRAS (ratio of KD value with respect to NRAS to KD value with respect to KRAS)” value ([1]; SPR) was “A (a compound having 10 or more and less than 20 is denoted as A)” and the “HRAS/KRAS (ratio of KD value with respect to HRAS to KD value with respect to KRAS)” value ([2]; SPR) was “B (a compound having 3 or more and less than 10 is denoted as B)”.
With `CCO[C@@H]1C[C@H]2C(=O)NC3(CCC3)C(=O)N(C)[C@@H](C3CCCC3)C(=O)N(C)[C@H](C(=O)N(C)C)CC(=O)N(C)[C@@H](CC)C(=O)N[C@@H]([C@@H](C)CC)C(=O)N(C)CC(=O)N(C)[C@H]3CCCCN(C3=O)[C@@H](Cc3ccc(C(F)(F)F)cc3)C(=O)N(C)CC(=O)N[C@@H](CCc3ccc(C(F)(F)F)c(C)c3)C(=O)N2C1` [PP0882] the “NRAS/KRAS (ratio of KD value with respect to NRAS to KD value with respect to KRAS)” value ([1]; KD ratio, SPR) was “C (A compound having a KD ratio of 0.1 or more and less than 3 is denoted as C)” and the “HRAS/KRAS (ratio of KD value with respect to HRAS to KD value with respect to KRAS)” value ([2]; KD ratio, SPR) was “B (a compound having 3 or more and less than 10 is denoted as B)”.
`CCCN1C(=O)CN(C)C(=O)CNC(=O)[C@H]([C@@H](C)CC)NC(=O)[C@H](CC(C)C)N(C)C(=O)C[C@@H](C(=O)N2CCOCC2)N(C)C(=O)[C@H](C2CCCC2)N(C)C(=O)C2(CCC2)NC(=O)[C@@H]2CCCN2C(=O)[C@H](CCc2ccc(C(F)(F)F)c(Cl)c2)NC(=O)CN(C)C(=O)[C@@H]1Cc1ccc(C(F)(F)F)cc1` [PP0393] ([NMeL]IG[Sar][NPrPhe(4-CF3)][Sar][hPhe(3-Cl-4-CF3)]P[Ac4c][NMeGly(cPent)][NMeD]-Morpholide; lactam N-11) was tested, and the “NRAS/KRAS (ratio of KD for GDP-bound NRAS wild-type to KD for KRAS)” value ([1]; KD ratio NRAS/KRAS, SPR) was “B (a compound having 3 or more and less than 10 is denoted as B)” and the “HRAS/KRAS (ratio of KD for GDP-bound HRAS wild-type to KD for KRAS)” value ([2]; KD ratio HRAS/KRAS, SPR) was “B (a compound having 3 or more and less than 10 is denoted as B)”.
For `CCCN(C)C(=O)[C@@H]1CC(=O)N(C)[C@@H](CC2CC2)C(=O)N[C@@H]([C@@H](C)CC)C(=O)N(C)CC(=O)N(C)[C@H]2C/C=C\CCN(C2=O)[C@@H](Cc2ccc(C(F)(F)F)cc2)C(=O)N(C)CC(=O)N[C@@H](CCc2cc(F)c(C(F)(F)F)c(F)c2)C(=O)N2C[C@H](OCC)C[C@H]2C(=O)NC2(CCC2)C(=O)N(C)[C@@H](C2CCCC2)C(=O)N1C` [PP1388], the “NRAS/KRAS (ratio of KD value for GDP-bound NRAS wild-type protein to KD value for KRAS)” value ([1]; SPR, KD ratio class) was “A (a compound having 10 or more and less than 20 is denoted as A)” and the “HRAS/KRAS (ratio of KD value for GDP-bound HRAS wild-type protein to KD value for KRAS)” value ([2]; SPR, KD ratio class) was “B (a compound having 3 or more and less than 10 is denoted as B)”.
